Results as given in PMC12320293 (2025).
Values belong to the compound of their own block, whether it stands above or below them.

Experiments:
[1] = system: miR-31 hairpin (pre-miR-31 residues 20-52) (RNA, miRNA) GGCAUAGCUGUUGAACUGGGAACCUGCUAUGCC; assay: STD-NMR; settings: KH2PO4 50 mM (500 mM in Methods), Mg2+ 1 mM, 10 μM RNA, 200 μM ligand
[2] = system: miR-31 hairpin (pre-miR-31 residues 20-52) (RNA, miRNA) GGCAUAGCUGUUGAACUGGGAACCUGCUAUGCC; assay: 1H-13C HSQC NMR titration (chemical shift perturbation); settings: KH2PO4 50 mM (500 mM in Methods), Mg2+ 1 mM, apparent, pH 7.5, 2% DMSO, 10% D2O, 37 °C
[3] = system: miR-31 hairpin (pre-miR-31 residues 20-52) (RNA, miRNA) GGCAUAGCUGUUGAACUGGGAACCUGCUAUGCC; assay: fluorescence titration of dye with RNA; settings: KH2PO4 50 mM (500 mM in Methods), Mg2+ 1 mM; 500 nM TO-PRO-1, RNA 0-20 μM, pH 7.5, 2% DMSO, room temperature
[4] = system: miR-31 hairpin (pre-miR-31 residues 20-52) (RNA, miRNA) GGCAUAGCUGUUGAACUGGGAACCUGCUAUGCC; assay: fluorescent indicator displacement; settings: KH2PO4 50 mM (500 mM in Methods), Mg2+ 1 mM, 100 μM compound, 50.9 nM RNA; for binding: TO-PRO-1 500 nM displaced by >15%; for % TO-PRO-1 displaced: TO-PRO-1 500 nM displaced
[5] = system: miR-31 hairpin (pre-miR-31 residues 20-52) (RNA, miRNA) GGCAUAGCUGUUGAACUGGGAACCUGCUAUGCC; assay: 1H-13C HSQC NMR titration (peak volumes); settings: KH2PO4 50 mM (500 mM in Methods), Mg2+ 1 mM, apparent, pH 7.5, 2% DMSO, 10% D2O, 37 °C, 100 μM RNA
[6] = system: miR-31 hairpin (pre-miR-31 residues 20-52) (RNA, miRNA) GGCAUAGCUGUUGAACUGGGAACCUGCUAUGCC; assay: 1H-13C HSQC NMR; settings: KH2PO4 50 mM (500 mM in Methods), Mg2+ 1 mM; ND: no observable change at 10-fold ligand excess; 37 °C

Structure (SMILES): Nc1ccccc1-c1nc2cnccc2[nH]1
- binding ([1]; pH 7.5, 25 °C, not detected by FID at 100 μM): yes
- KD ([2]; no saturation at 1 mM): > >1000 μM

Structure (SMILES): C[n+]1c(C=C2C=CN(CCC[N+](C)(C)C)c3ccccc32)sc2ccccc21
- KD [3]: 0.46 ± 0.06 µM

Structure (SMILES): Nc1ccc(-c2nc3cncc(N)c3[nH]2)c(O)c1
- % TO-PRO-1 displaced ([4]; 2% DMSO, room temperature): 28.6 ± 0.4%
- KD ([5]; excess ligand non-specific): 29.10 ± 0.15 µM

The next lines start with the values.

- binding [4]: yes
- KD ([5]; non-specific at 10-fold excess): 20.64 ± 9.40 µM
Structure (SMILES): Nc1nc(N)c2c(ccc3[nH]ccc32)n1

- binding [6]: weak
- % TO-PRO-1 displaced ([4]; below 15% hit criterion): 7.6 ± 1.8%
- binding ([1]; pH 7.5, 25 °C): weak
Structure (SMILES): COc1ccc(Nc2nc(N)nc(N)c2C#N)cc1

- binding [6]: weak
- % TO-PRO-1 displaced ([4]; below 15% hit criterion): 7.6 ± 2.7%
- binding ([1]; pH 7.5, 25 °C): weak
Structure (SMILES): Cc1cccc(Nc2nc(N)nc(N)c2C#N)c1

- binding [4]: yes
- binding ([1]; pH 7.5, 2% DMSO, 25 °C): yes
- KD [2]: > >1000 μM
Structure (SMILES): Nc1cc(Nc2ccc(Br)cc2)nc(N)n1
